The results in this text go back to patent US20090110720A1, “Use of compounds for the prevention of drug-induced cell toxicity” (priority 2005, published 2009).

Molecules are shown by their SMILES.

The target in the test is megalin (Oryctolagus cuniculus, UniProt Z9GY10I8Y6). Kind of test: Inhibition of gentamicin binding to immobilized megalin by surface plasmon resonance (Biacore 2000). The following applies: 1 mM gentamicin co-injected; megalin purified from rabbit kidneys immobilized on chip; pH 7.4 buffer; FIG. 3; read-out: antagonist concentration at which 50% inhibition of gentamicin binding is obtained. The procedure:
Inhibition of gentamicin binding to immobilized megalin by p-xylylene diamine was assessed by surface plasmon resonance (SPR) analysis on a Biacore 2000 instrument (Biacore, Uppsala, Sweden). Megalin purified from rabbit kidneys as described in Birn et al. (J. Biol. Chem., 1997, Vol. 272, No. 42, 26497-26504) was immobilized in a concentration of 28-40 fmol/mm^2. Samples were dissolved in 10 mM Hepes, 150 mM NaCl, 1.5 mM CaCl2, 1 mM EGTA, 0.005% Tween-20 pH 7.4. The same buffer was used as running buffer. At time zero, p-xylylene diamine at the concentrations indicated (FIG. 3) were applied to the chip and binding as expressed in relative response units (RU), i.e. the difference in response between megalin and a control flow channel, was measured. After 700 sec., 1 mM gentamicin was co-injected with buffer alone or various concentrations of p-xylylene diamine. Inhibition of gentamicin binding is scored as the difference in RU units obtained by injection of gentamicin alone and in the presence of the antagonist. Regeneration of the sensor chip after each analysis cycle was performed with 1.6 M glycine-HCl buffer pH 3.0.
50% inhibition is obtained at an antagonist concentration of about 0.1 mM.
On the technique in general: In SPR one partner is held on a chip, and binding of the other changes the refractive index at the surface.

Chain of megalin (Z9GY10I8Y6 26-4660 limits assumed): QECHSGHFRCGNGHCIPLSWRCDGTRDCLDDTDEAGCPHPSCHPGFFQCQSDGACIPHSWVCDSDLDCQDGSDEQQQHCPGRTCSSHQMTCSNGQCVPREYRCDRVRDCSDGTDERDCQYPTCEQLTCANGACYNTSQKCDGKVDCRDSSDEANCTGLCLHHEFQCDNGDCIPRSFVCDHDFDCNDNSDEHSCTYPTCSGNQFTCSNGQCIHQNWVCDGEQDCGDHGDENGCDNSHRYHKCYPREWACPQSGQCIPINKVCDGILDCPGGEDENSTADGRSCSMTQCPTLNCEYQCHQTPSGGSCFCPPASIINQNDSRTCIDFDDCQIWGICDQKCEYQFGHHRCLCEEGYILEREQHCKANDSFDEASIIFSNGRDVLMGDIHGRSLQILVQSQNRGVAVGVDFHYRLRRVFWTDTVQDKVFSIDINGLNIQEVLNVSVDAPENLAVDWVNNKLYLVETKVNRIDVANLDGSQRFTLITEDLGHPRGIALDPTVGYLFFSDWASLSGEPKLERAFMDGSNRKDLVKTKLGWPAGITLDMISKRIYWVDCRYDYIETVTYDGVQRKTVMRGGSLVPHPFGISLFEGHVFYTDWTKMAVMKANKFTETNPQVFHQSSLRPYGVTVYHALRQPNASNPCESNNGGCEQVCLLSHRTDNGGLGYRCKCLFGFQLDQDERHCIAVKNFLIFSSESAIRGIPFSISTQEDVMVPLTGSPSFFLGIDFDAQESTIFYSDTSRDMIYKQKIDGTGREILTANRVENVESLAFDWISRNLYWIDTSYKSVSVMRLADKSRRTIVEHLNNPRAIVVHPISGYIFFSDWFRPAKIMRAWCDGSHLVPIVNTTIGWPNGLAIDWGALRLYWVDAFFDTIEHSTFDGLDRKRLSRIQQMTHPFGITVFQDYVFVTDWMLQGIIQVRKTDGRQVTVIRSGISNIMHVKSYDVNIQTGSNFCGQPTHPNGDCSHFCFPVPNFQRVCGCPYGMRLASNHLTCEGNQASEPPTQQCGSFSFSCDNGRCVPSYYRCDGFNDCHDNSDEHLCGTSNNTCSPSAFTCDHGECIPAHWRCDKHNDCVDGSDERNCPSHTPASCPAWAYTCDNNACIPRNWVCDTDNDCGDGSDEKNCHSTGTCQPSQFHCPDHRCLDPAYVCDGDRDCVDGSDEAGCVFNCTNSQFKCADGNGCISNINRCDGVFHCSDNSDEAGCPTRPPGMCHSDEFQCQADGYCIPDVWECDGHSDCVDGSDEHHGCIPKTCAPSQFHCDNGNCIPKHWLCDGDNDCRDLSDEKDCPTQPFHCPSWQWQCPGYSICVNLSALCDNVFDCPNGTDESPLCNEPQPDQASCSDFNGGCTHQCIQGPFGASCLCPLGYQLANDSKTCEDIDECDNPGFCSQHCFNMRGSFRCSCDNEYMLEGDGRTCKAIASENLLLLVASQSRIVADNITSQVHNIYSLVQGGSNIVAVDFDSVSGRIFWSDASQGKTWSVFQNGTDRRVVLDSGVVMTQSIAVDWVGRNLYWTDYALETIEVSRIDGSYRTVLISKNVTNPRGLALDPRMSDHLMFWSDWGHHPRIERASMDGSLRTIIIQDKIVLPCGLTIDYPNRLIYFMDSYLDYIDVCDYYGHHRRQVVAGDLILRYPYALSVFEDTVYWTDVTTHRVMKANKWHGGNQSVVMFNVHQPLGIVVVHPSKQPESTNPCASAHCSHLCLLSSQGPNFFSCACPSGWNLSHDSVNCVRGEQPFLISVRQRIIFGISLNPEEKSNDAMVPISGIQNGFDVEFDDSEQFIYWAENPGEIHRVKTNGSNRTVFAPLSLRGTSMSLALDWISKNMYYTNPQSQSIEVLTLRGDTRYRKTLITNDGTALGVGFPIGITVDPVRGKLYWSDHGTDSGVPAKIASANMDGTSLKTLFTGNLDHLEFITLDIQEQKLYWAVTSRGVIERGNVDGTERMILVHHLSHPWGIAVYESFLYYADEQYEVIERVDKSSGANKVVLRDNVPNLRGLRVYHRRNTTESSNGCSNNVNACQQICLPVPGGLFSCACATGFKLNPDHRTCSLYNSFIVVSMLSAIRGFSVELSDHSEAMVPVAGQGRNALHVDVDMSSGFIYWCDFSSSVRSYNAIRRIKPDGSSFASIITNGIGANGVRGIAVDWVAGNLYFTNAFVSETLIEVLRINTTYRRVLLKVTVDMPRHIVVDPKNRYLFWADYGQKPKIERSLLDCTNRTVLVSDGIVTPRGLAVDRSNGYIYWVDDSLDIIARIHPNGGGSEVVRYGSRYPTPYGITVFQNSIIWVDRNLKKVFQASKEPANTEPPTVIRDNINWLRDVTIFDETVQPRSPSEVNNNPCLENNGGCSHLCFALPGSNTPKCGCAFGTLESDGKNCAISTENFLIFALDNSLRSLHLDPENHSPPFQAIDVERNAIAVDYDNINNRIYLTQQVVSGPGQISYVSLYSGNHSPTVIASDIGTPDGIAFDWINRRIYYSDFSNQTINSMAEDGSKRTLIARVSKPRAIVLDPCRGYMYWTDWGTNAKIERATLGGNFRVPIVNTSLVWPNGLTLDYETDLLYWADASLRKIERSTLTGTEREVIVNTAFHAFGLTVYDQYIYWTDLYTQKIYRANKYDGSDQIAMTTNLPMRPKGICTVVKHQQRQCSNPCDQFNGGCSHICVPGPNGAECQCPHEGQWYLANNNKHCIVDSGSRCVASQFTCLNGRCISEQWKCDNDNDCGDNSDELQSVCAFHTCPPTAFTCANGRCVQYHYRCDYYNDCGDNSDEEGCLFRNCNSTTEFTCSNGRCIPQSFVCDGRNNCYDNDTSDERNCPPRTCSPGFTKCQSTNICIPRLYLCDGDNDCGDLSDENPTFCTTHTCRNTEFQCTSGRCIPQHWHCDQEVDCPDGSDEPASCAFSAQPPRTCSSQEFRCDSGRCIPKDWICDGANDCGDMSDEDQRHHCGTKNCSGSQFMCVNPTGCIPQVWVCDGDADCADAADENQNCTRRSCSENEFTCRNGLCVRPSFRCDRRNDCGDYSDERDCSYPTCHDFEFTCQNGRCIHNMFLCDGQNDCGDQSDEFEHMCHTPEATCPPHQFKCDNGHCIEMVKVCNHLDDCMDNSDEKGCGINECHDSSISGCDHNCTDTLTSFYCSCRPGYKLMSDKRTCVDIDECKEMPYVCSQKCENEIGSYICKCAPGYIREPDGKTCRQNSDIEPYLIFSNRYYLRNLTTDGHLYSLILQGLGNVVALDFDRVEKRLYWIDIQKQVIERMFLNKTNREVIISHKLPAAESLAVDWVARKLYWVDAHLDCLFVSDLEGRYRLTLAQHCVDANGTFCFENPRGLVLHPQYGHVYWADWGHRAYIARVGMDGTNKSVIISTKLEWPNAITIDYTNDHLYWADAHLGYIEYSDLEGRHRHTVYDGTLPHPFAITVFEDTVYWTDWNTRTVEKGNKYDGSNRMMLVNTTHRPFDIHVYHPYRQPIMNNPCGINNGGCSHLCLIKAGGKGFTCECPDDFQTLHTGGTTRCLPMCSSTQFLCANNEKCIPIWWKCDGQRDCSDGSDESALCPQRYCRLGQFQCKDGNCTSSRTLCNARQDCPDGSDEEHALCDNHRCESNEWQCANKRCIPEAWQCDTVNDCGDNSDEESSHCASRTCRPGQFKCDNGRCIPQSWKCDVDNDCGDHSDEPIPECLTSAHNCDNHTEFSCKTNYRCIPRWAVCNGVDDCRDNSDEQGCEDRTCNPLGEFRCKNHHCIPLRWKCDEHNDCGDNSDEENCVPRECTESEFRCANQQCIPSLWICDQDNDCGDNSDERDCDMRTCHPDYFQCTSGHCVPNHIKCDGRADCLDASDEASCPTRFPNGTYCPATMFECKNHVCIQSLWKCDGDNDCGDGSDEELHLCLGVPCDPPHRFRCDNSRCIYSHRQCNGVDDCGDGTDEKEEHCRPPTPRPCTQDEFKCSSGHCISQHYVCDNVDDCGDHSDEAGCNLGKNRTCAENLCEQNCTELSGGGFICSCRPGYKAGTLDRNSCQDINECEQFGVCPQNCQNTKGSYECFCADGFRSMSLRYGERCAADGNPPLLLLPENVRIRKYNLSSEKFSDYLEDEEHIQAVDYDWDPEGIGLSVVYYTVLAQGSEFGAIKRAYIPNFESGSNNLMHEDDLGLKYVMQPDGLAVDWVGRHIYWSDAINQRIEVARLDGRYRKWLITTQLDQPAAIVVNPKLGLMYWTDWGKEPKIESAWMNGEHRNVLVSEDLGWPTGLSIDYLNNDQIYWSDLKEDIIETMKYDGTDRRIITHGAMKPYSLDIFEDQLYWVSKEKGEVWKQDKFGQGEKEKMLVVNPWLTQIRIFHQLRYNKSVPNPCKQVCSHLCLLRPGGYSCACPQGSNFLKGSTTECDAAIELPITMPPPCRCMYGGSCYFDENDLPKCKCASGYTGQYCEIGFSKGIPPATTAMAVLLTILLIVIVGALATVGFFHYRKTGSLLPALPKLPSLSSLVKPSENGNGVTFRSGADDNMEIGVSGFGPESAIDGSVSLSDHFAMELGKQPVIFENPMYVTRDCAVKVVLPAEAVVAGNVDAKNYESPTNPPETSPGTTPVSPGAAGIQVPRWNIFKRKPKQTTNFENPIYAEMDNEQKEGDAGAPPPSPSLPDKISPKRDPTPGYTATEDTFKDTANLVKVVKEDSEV

For the compound `NCc1ccc(CN)cc1` [RC043, p-xylylene diamine], the IC50 is around 100 µM.
